Values quoted from earlier work in patent US20160286794A1, “PLANT DISEASE CONTROL AGENT AND PLANT DISEASE CONTROL METHOD” (UBE MATERIALS INDUSTRIES, LTD., priority 2013, published 2016).

Settings: Hydrophile-Lipophile Balance of the nonionic surfactant
For “nonylphenyl polyethylene glycol [Nodinet P-40]”, the HLB is given as 13.0.
In the case of “octylphenol polyethylene glycol ether [Triton X-100]”, the HLB is given as 13.5.
For “polyethylene glycol sorbitan monolaurate [Tween 20]”, the HLB is given as 16.7.
For “polyethylene glycol sorbitan monooleate [Tween 80]”, the HLB is given as 15.0.
For “polyoxyethylene branched nonyl cyclohexyl ether [Triton N-101]”, the HLB is given as 13.5.
